Results: publication PMC5371824, “Phosphatidylinositol (4,5)-bisphosphate dynamically regulates the K2P background K^+ channel TASK-2” (Scientific Reports, 2017)
Positions count from the first letter of the chain named.

Key:
TASK-2-H327C = target: T1, TASK-2-H327C (Mus musculus, UniProt F6V9U5, H327C); test: Excised inside-out patch recording, TASK-2-H327C mutant; type: biochemical; conditions: 1 mM, brief intracellular exposure in the presence of TPeA
T1 construct: expressed in transfected cells; host or cells: HEK-293
T1 sequence (F6V9U5 1-502 H327C): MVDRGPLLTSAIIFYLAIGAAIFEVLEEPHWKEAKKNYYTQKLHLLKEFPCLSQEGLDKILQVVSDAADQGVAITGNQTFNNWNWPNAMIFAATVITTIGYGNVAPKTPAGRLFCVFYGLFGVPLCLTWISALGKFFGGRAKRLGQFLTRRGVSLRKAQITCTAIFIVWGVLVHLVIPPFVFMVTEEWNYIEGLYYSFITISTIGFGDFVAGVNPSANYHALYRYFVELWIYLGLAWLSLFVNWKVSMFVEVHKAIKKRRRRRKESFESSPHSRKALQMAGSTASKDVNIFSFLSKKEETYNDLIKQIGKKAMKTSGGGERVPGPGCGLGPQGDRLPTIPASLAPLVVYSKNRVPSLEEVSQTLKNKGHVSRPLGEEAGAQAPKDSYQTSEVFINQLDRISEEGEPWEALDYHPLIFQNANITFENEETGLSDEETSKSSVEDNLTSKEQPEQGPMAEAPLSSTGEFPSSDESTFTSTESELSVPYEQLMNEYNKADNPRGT
Experimental: Figure 6 Scanning of potential sites of interaction of TASK-2 with PI(4,5)P2 by cysteine mutagenesis of intracellular basic residues. (A) Schematic representation of TASK-2 topology showing the sequences of segments of the protein predicted to be intracellular or intracellular-facing. Basic residues are highlighted in red. (B) Recording from an excised inside-out patch of membrane taken from a HEK-293 cell over-expressing TASK-2. The patch was held at −60 mV in the presence of 1 mM ATP. At the intervals indicated by the boxes the intracellular aspect of the membrane was exposed to 300 μM Neomycin and then to 100 μM TPeA. At the end of the TPeA period the patch was additionally exposed to 1 mM MTSET as shown by the black box. (C and D) experiments as in (B), but with inside-out membrane patches obtained from cells expressing the mutants TASK-2-H327C and TASK-2-K297C respectively. In D the reducing agent DTT was also added at 2 mM. (E) Summary of experiments comparing the current before and after treatment with MTSET. […]
Recordings in the inside-out isolated patch configuration were performed in the gap-free mode at −60 mV. […] Traces shown are prints from crude Clampfit screen shots and quantification was done using the average currents were calculated at intervals using Clampfit after baseline adjustment.

TASK-2-R438C = test: Excised inside-out patch recording, TASK-2-R438C mutant; type: biochemical, Mus musculus; parameters: key to MTSET effect: ✓ under “MTSET effect” indicates a significant increase in current after treatment with the methanesulfonate reagent; — in all cases stands for no significant effect
Experimental: Mus musculus TASK-2 (GenBank accession No. AF319542) plasmid was that obtained from mouse kidney. The cDNAs was subcloned into the pCR3.1 vector. Mutations were made by site-directed mutagenesis into the pCR3.1 vector as previously described[69] and confirmed by sequencing. HEK-293 cells were cultured in Dulbecco’s modified Eagle’s medium (DMEM) and F12 Ham’s medium at a 1:1 ratio and supplemented with 10% fetal calf serum at 37 °C in 5% CO2. For electrophysiological experiments, transient transfections were performed by electroporation, using CD8 cotransfection to identify effectively transfected cells. […] Experiments were performed 4–8 h after electroporation. In experiments with the voltage-sensitive phosphatase TASK-2 or its mutants were co-electroporated with a pCR3.1-DrVSP-IRES-CD8 vector.
Recordings in the inside-out isolated patch configuration were performed in the gap-free mode at −60 mV. The inside aspect of the patch was bathed with a solution containing in mM: 10 KCl, 10 Glucose, 1 MgCl2, 10 EGTA, 1 Na3ATP, 0.1 GTP, 6.8 g/100 ml Sucrose, 10 Hepes/Tris, pH 7.4. The pipette contained in mM: 140 KCl, 10 Glucose, 6.8 g/100 ml Sucrose, 10 Hepes/Tris pH 7.4. For isolated patches, borosilicate capillaries (Harvard Apparatus GC150F-10 1.5 ODx0.86 ID) were fire polished to 4–5 MΩ and covered in beeswax. Acquisition was at 10 kHz with filter at 3 kHz (4-pole Bessel) and analysis was done with Clampfit 9.0 (Axon Instruments, Foster City, CA, USA). Traces shown are prints from crude Clampfit screen shots and quantification was done using the average currents were calculated at intervals using Clampfit after baseline adjustment.
Fig. S7. Concentration ependence for the inhibition of TASK-2 mutant R438C by
intracellular neomycin. Recording were obtained from excised inside-out patches of
membrane taken from a HEK-293 cells over-expressing TASK-2-R438C. The patches were
held at -60 mV in the presence of 1 mM intracellular ATP. Neomycin was increased
stepwise from 5 to 500 µM in the solution bathing the intracellular aspect of the membrane. […]

TASK-2 = target: T2, TASK-2 (Mus musculus, UniProt F6V9U5); test: Excised inside-out patch recording from HEK-293 cells over-expressing TASK-2; type: biochemical; conditions: 1 mM, inside-out patch
T2 construct: expressed in transfected cells; host or cells: HEK-293
T2 sequence (F6V9U5 1-502): T1 sequence (F6V9U5 1-502 H327C) with C327H

## C[N+](C)(C)CCSS(C)(=O)=O.[Cl-] [MTSET, [2-(trimethylammonium)ethyl] methanethiosulfonate chloride]
TASK-2-H327C
  Effect of MTSET on TASK-2-H327C channel activity: Neither WT nor H327C channel activity is affected
TASK-2-R438C; 1 mM, in the presence of TPeA, inside-out patch
  Effect of MTSET on TASK-2-R438C activity: not affected
TASK-2-R438C; mutation R438C
  MTSET effect: —
TASK-2; brief intracellular exposure in the presence of TPeA
  Effect of MTSET on WT TASK-2 channel activity: Neither WT nor H327C channel activity is affected
TASK-2; without TPeA, 1 mM ATP, Fig. S4
  Effect of MTSET on WT TASK-2 activity: markedly reduced
